Each structure is given as a SMILES string.

The nature of this data set: Solubility / aggregation of pHLIP variants at pH 8.

On to `CC[C@H](C)[C@H](NC(=O)[C@@H]1CCCN1C(=O)[C@H](CC(N)=O)NC(=O)[C@H](CCC(N)=O)NC(=O)[C@H](CCC(=O)O)NC(=O)CNC(=O)CN)C(=O)N[C@@H](Cc1ccc(O)cc1)C(=O)N[C@@H](Cc1c[nH]c2ccccc12)C(=O)N[C@@H](C)C(=O)N[C@@H](CCC(N)=O)C(=O)N[C@@H](Cc1ccc(O)cc1)C(=O)N[C@@H](C)C(=O)N[C@@H](CC(=O)O)C(=O)N[C@@H](Cc1c[nH]c2ccccc12)C(=O)N[C@@H](CC(C)C)C(=O)N[C@@H](Cc1ccccc1)C(=O)N[C@H](C(=O)N[C@H](C(=O)N1CCC[C@H]1C(=O)N[C@@H](CC(C)C)C(=O)N[C@@H](CC(C)C)C(=O)N[C@@H](CC(C)C)C(=O)N[C@@H](CC(C)C)C(=O)N[C@@H](CC(=O)O)C(=O)N[C@@H](CC(C)C)C(=O)N[C@@H](C)C(=O)N[C@@H](CC(C)C)C(=O)N[C@@H](CC(C)C)C(=O)N[C@H](C(=O)N[C@@H](CC(=O)O)C(=O)N[C@@H](C)C(=O)N[C@@H](CC(=O)O)C(=O)N[C@@H](CCC(=O)O)C(=O)NCC(=O)N[C@H](C(=O)N[C@@H](CS)C(=O)NCC(=O)O)[C@@H](C)O)C(C)C)[C@@H](C)O)[C@@H](C)O` [R11Q], for which the “Notes: solubility” value is “Has better solubility”.
